“Also recorded” adds a separate entry of the source.
Experiments:
Prostate PC-3 = assay: sc xenograft, prostate tumour, mouse; format: in vivo; conditions: for Activity (% T/C.): xenograft, mouse
Experimental: Different model systems were evaluated to provide the basis for further clinical work. Selective antitumour activities were seen against two histologically different solid tumours: human gastric and prostate carcinomas. Potent in vitro activity to primary gastric tumour specimens or Hs746T gastric tumour cells is evident with IC30 values of 146 and 450 pM, respectively. […] activities were evaluated in nude rodents using sc implanted tumour fragments or hollow fibres (HF) containing tumour cells.
Follow-up studies necessitated using rats for iv infusions. With this variation, a 24 hr iv infusion schedule produced similar activities against HF gastric (20%) and HF prostate (31%) tumour cells. Cytotoxicity was also found using a 5 day iv infusion schedule against HF prostate tumour cells (33%).

advanced solid tumours = assay: Phase I, 24 h infusion weekly x3 q4wk: antitumour activity; format: in vivo, human
Experimental: In this study 16 patients were treated. patients characteristics: median age 55 years, median PS 1, male/female 11/5, tumour types being as follows: Head and neck 5, kidney 2, colon 3, rectum 2, sarcoma 1 and melanoma 3, all pre-treated with chemotherapy (median 2 lines).
Aplidine was administered as a 24 h infusion at the following dose levels (Dls): 133 (3 pts), 266 (3 pts), 532 (3 pts), 1000 (3 pts), 2000 (3 pts) and 3000 (1 pt) mcg/m^2/wk×3 every 28 days.
To date, 25 pts (median age 58 yrs, median ECOG 1) with advanced, previously treated solid tumours or lymphoma have been treated in this phase I study. Using a schedule of APL 24 h weekly×3 followed by 1 wk rest, the following dose levels have been tested: 133 (n-3 pts), 266 (3), 532 (3), 1000 (3), 2000 (3), 4500 (3) and 3750 μg/m^2/wk (3). With 60 cycles (180 infusions) administered, all pts are evaluable for toxicity. The Maximum Tolerated Dose was 4500 μg/m^2/wk×3 with grade (G) 3 muscular toxicity (biopsy proven type II muscular atrophy). G4 CPK and G3 transaminitis the dose-limiting toxicities in 2 or 4 pts. […] All pts have been sampled for PK analysis by LC/MS/MS. […] As expected, neuromuscular toxicity is dose-limiting. The possible recommended dose of 3750 μg/m^2/wk×3 is being assessed.
A phase I trial was performed using 24 hour infusion weekly×3 followed by 1 wk rest. 32 patients (median age 58 yrs, median ECOG 1) with advanced, previously treated solid tumours have been treated. They have received 64 courses (median/pt: 2 (1-6)) across 8 dose levels: 133 (3 pts), 266 (3 pts), 532 (3 pts), 1000 (3 pts), 2000 (3 pts), 3000 (3 pts), 4500 (4 pts) and 3750 mcg/m^2/wk (10 pts). 2 out of 3 evaluable patients had DLT at 4500 mcg/m^2/wk: grade (G) 4 reversible neuromuscular toxicity (biopsy prevent type II muscular atrophy) and G4 CK increase (1 pt), and transient G3 transaminitis (1 pt). Other toxicities included G 1-2 malaise (most patients treated at ≧3000 mcg/m^2/wk), muscle cramps, G 1-2 emesis (responsive to antiemetics) and injection site reaction (very common and concentration-dependent). All patients have been sampled for PK analysis by a LC/MS/MS method. Pharmacokinetics are linear and the profiles fit a 2 compartment open model. […] Maintained plasma levels >1 ng/ml (active in vitro) were obtained at doses ≧3000 mcg/m^2. […] Four additional patients had minor responses or stable disease for >4 months. […] The recommended dose for future trials, 3750 mcg/m^2/wk×3, administered through a central vein catheter, is feasible and associated with mild toxicity.

[1] = system: advanced solid tumours and lymphoma; assay: Phase I, 1 h weekly infusion x3 q4wk: antitumour activity; format: in vivo, human
Text: Adult patients with advanced disease, PS<3, and appropriate organ function are considered eligible; patients receive aplidine wk×3/q^4 wks. 24 solid tumour patients have been entered: median (m) age 55 y, m ECOG=1, 15/24 patients treated with =>2 treatment cycles. Seven dose levels (DL) from 133 mcg/m^2/wk to 2700 mcg/m^2/wk have been assessed: 102 infusions are evaluable for toxicity (tox). […] At 2700 mcg/m^2/wk (4 pts), 1 had G3 hiperbilirrubinemia that has been considered to be dose limiting and therefore 2700 mcg/m^2/wk DL is being expanded. […] Plasma levels >1 ng/ml 24 hours after infusion are reachable form 1800 mcg/m^2/wk. […] Aplidine appears to be clinically feasible at pharmacologically appropriate dose levels.
Aplidine was administered as a 1 hour weekly×3 every four weeks

FLT-1 (VEGF-R1) = assay: cDNA expression array, PCR, Western in MOLT-4 cells; format: cell-based, human; conditions: for quantitative change in FLT-1 expression: MOLT-4, 1 h treatment
Experimental: (§1) The early changes in gene expression induced by aplidine in MOLT-4 cells were evaluated by using cDNA expression arrays (Atlas Human Cancer, Clontech). MOLT-4 cells were treated for 1 hour with concentrations of aplidine which inhibit the growth by 50% and total RNA was isolated at 0, 1, 6 and 24 hours after drug wash out. Filters were hybridised with equal amount of 32P labelled cDNA. Analysis of the results was carried out using ATLAS IMAGE 1.0 software. Changes in gene expression greater than 2 fold were taken as significant changes in RNA expression and subsequently confirmed by PCR.
as §1, with “In the present study we have evaluated the early” for “The early”, “cells” for “cells were evaluated”, “of aplidien” for “of aplidine”, “isolated t” for “isolated at”, “equal amounts” for “equal amount”, “PCR. […] Whether the down-regulation of flt-1 is involved in the cytotoxic and antitumour effect of aplidine is under investigation at the moment.” for “PCR.”
The human leukaemia cell line MOLT-4 was used for these experiments MOLT-4 cells were treated for 1 hour with 20 nM of aplidine. Total RNA was extracted at the end of treatment and 6 and 24 hours after recovery in drug-free medium.
5 μg of total RNA were retrotanscribed to cDNA in the presence of ^32P dATP. Equal amounts of radioactive probes were hybridised to Atlas Human Cancer Microarrays (Clontech). After washing, filter were exposed and the results analysed using the Atlas Image software. Only a gene expression difference greater than 2 fold between treated and untreated cells were taken into account. RT-PCR and northern analysis have been performed to confirm the changes in gene expression found with the microarrays.

Substance: aplidine
- Optimal activities, xenografted prostate tumours (Prostate PC-3; ip administration, range over regimens): 25-38%
- Activity (% T/C.) (Prostate PC-3; q4dx3.ip, 1.05 mg/kg): 38% T/C
- Activity (% T/C.) (Prostate PC-3; q4dx3.ip, 2.10 mg/kg): 34% T/C
- Activity (% T/C.) (Prostate PC-3; qd9.ip, 0.62 mg/kg): 30% T/C
- Activity (% T/C.) (Prostate PC-3; qd9.ip, 1.25 mg/kg): 25% T/C
- clinical response, pre-treated advanced melanoma (advanced solid tumours; DL 532 mcg/m^2/w, 1 patient): clinical improvement
- response, Patient #034, thyroid medullary carcinoma (advanced solid tumours; decrease in CEA marker): Clinical improvement and SD at lung lymphangitis
- duration of minor responses or stable disease (advanced solid tumours; four additional patients): > 4 months
- response, Patient #008, non measurable metastatic melanoma (advanced solid tumours; highly pre-treated): clinical improvement and tumour shrinkage
- tumour shrinkage, Patient #032, renal carcinoma (advanced solid tumours; in vivo): 20%
- duration of clinical improvement, advanced melanoma resistant to DTIC/interferon (advanced solid tumours; one patient): > 30 weeks
- response, Pat #16, gastric adenocarcinoma resistant to FAM ([1]; 1200 μg/m^2 weekly): Slight improvement in the lymph node masses
- activity in gastric cancer ([1]; 1 patient at 1200 mcg/m^2): Early hints of activity
- response, advanced renal cancer resistant to VBL-IFN ([1]; 2700 mcg/m^2/wk DL): ongoing objective response
- response, Pat #23, kidney carcinoma with pulmonary nodules ([1]; after 2 infusions at 2700 μg/m^2 weekly): Partial remission in lung nodules
- response, Pat #29, kidney carcinoma ([1]; after 3 infusion): Clinical improvement
- expression of VEGF-RI/flt-1 gene, in words (FLT-1 (VEGF-R1); MOLT-4, 20 nM 1 h, at the end of treatment): decreased
- levels of flt-1, in words (FLT-1 (VEGF-R1); MOLT-4, 20 nM 1 h, by 6 and 24 hours): further decreased
- quantitative change in FLT-1 expression (FLT-1 (VEGF-R1); 1 Hour): −1.5 fold
- quantitative change in FLT-1 expression (FLT-1 (VEGF-R1); 6 Hours): −5.0 fold
- quantitative change in FLT-1 expression (FLT-1 (VEGF-R1); 24 Hours): −3.4 fold
- expression of VEGF-R1 (flt-1), in words (FLT-1 (VEGF-R1); MOLT-4, RNA level by PCR, protein level by Western blotting): downregulated; also recorded: inhibits expression; also recorded: marked time-dependent reduction; also recorded: decrease in flt-1 mRNA
